From patent US4617302A, “Inotropic agents” (Eli Lilly and Company, priority 1984, dated 1986)

Tests used:
Cat Papillary Muscles = assay: Positive inotropic activity in isolated cat papillary muscles; details: Felis catus, control = 100 percent, average of 2 to 8 muscles, read-out: Contractility of Papillary Muscle, peak response as percent of control; for activity at 100 µM: Compound Concentration 10^-4 M; for activity at 10 µM: Compound Concentration 10^-5 M
Protocol: Cats of either sex were anesthetized with Metofane (1,1-difluoro-2,2-dichloroethyl methyl ether, Pittman-Moore). Their hearts were immediately removed and the papillary muscles dissected and suspended in individual organ baths. A platinum hook secured one end of the muscle to an electrode mounted in the bottom of the bath, and a silk thread attached the tendon to a Statham isometric transducer. The baths contained Krebs-Henseleit solution (36° C., bubbled with 95 percent oxygen - 5 percent carbon dioxide) of the following millimolar composition: NaCl, 118; KCl, 4.5; CaCl2, 2.5; KH2 PO4, 1.1; MgSO4, 1.2; NaHCO3, 25; and glucose, 11.
A base-line tension of 1.5 g was applied to each muscle. Square-wave pulses (5.0 msec. in duration, three times threshold voltage) delivered through the hook electrode and a second electrode positioned near the top of the muscle evoked 12 contractions/minute, which were recorded on a Grass polygraph. After the muscles had equilibrated for 60 minutes, the recorder gain was adjusted so that the pen deflected 10 mm. The test compound was introduced in a solution of normal saline in an amount to bring the final concentration of the compound to 10^-5 or 10^-4 molar. Increases in contractility were tabulated as millimeters of pen deflection in excess of the baseline value. In each experiment the maximum contractility was measured. Test results are summarized in Table I and are expressed as percent of control (control=100 percent). Values are the average of results from 2 to 8 muscles.

[1] = test system: anesthetized dog (ventricular contractility); assay: Ventricular contractility in the anesthetized dog; format: in vivo; details: Canis lupus familiaris, iv; anesthetized mongrel dogs, i.v. bolus in normal saline; by interpolation; read-out: ED50, dose required to produce a peak increase in contractility of 50%
Protocol: Mongrel dogs of either sex ranging in weight from 7 to 14 kg were used. Anesthesia was induced with sodium pentobarbital (30 mg/kg, i.v.) and maintained with supplemental doses as required. A positive-pressure pump was used to ventilate the dogs through an endotracheal tube (18 strokes/minute, 20 ml/kg stroke^-1), and a heating pad kept the body temperature at 37°-38° C.
Femoral arterial blood pressure was measured through a polyethylene catheter filled with heparin solution (16 units/ml) and connected to a Statham pressure transducer. A strain-gauge arch sutured to the right ventricle of the heart measured cardiac contractility. Tension on the gauge was adjusted to 50 g and the gain of the recorder (Beckman dynograph) was set so that 50 g caused a 10-mm pen deflection. Cardiac contractile tension was measured as millimeters of pen deflection or grams of tension. The test compounds were administered as an i.v. bolus (2-5 ml) in a normal saline vehicle following a 30-45 minute equilibrium period. […] The maximum effects on contractility at various dose levels were determined and plotted and the dose required to produce a 50% increase in contractility (ED50) was determined by interpolation.

[2] = test system: conscious dogs (contractility, LVdP/dt); assay: Cardiac contractility in conscious dogs; format: in vivo; details: Canis lupus familiaris, po; conscious mongrel dogs, fasted eighteen hours, administered in gelatin capsules; by interpolation; read-out: ED50, dose required to produce a 50-percent increase in contractility
Excerpt: Mongrel dogs of either sex weighing 15-36 kg were chronically instrumented to monitor peak systolic pressure, heart rate, left ventricular pressure and its first derivative, LVdP/dt at 60 mm of mercury. Under halothane-nitrous oxide anesthesia, a precalibrated Konigsberg P22 Pressure Transducer was implanted into the left ventricle through a stab wound at the apex. Following recovery from surgery, a minimum of two weeks was allowed to train the dogs to lie quietly for four-hour periods. This conditioning was necessary to obtain stable, reproducible results from day to day. Dogs were fasted eighteen hours before an experiment. Gross behavioral observations of animals were made throughout each study. Compounds or placebo (lactose) were administered in gelatin capsules. The maximum effects on contractility at various dose levels were determined and plotted and the dose required to produce a 50-percent increase in contractility (ED50) was determined by interpolation. The ED50 for the compound of Example 1 was determined to be 50 mcg/kg.

SMILES | activity at 100 µM (Cat Papillary Muscles) [%] | activity at 10 µM (Cat Papillary Muscles) [%] | ED50 [1] [mg/kg] | ED50 [2] [mg/kg]
O=C1CCC(c2ccc3c(c2)C2(CCC2)C(=O)N3)=NN1 [Example 3, 5'-(1,4,5,6-tetrahydro-6-oxo-3-pyridazinyl)-spiro[cyclobutane-1,3'-[3H]indol]-2'(1'H)-one] | 132 | 138 | 0.025 | –
O=C1CCC(c2ccc3c(c2)C2(CC2)C(=O)N3)=NN1 [Example 1, 5'-(1,4,5,6-tetrahydro-6-oxo-3-pyridazinyl)-spiro[cyclopropane-1,3'-[3H]indol]-2'(1'H)-one] | – | – | 0.0019 | 0.05
O=C1CCC(c2ccc3c(c2)C2(CCCC2)C(=O)N3)=NN1 [Example 2, 5'-(1,4,5,6-tetrahydro-6-oxo-3-pyridazinyl)-spiro[cyclopentane-1,3'-[3H]indol]-2'(1'H)-one] | 134 | 132 | 0.07 | –
